According to the NIST ThermoML archive (doi:10.1021/je060170c):

How the values were obtained:
[1] = 101 kPa, Liquid; for viscosity: Anton Paar Stabinger viscometer
[2] = xn = mol fraction of the nth substance listed; conditions: 101 kPa, Liquid, x2 = 0; for viscosity: Anton Paar Stabinger viscometer

Cc1ccccc1C [1,2-dimethylbenzene]
[1]
Conditions	mass density [kg/m3]	speed of sound [m/s]	viscosity [mPa·s]
288.15 K	883.285	1390.3	0.871
293.15 K	879.083	1369.7	0.81
298.15 K	875.532	1349.4	0.756
303.15 K	870.726	1328.3	0.708

Cc1ccccc1C [1,2-dimethylbenzene] + COc1ccccc1
[2]
Conditions	mass density [kg/m3]	speed of sound [m/s]	viscosity [mPa·s]
288.15 K	883.285	1390.3	0.871
293.15 K	879.083	1369.7	0.81
298.15 K	875.532	1349.4	0.756
303.15 K	870.726	1328.3	0.708

Cc1cc(C)cc(C)c1 [1,3,5-trimethylbenzene]
[1]
Conditions	mass density [kg/m3]	speed of sound [m/s]	viscosity [mPa·s]
288.15 K	869.169	1377.5	0.754
293.15 K	865.072	1357	0.705
298.15 K	861.062	1336.9	0.661
303.15 K	856.95	1316.8	0.621

Cc1cccc(C)c1 [1,3-dimethylbenzene]
[1]
Conditions	mass density [kg/m3]	speed of sound [m/s]	viscosity [mPa·s]
288.15 K	868.317	1362.6	0.666
293.15 K	864.049	1357	0.619
298.15 K	859.767	1321	0.581
303.15 K	855.469	1300.3	0.552

Cc1cccc(C)c1 [1,3-dimethylbenzene] + COc1ccccc1
[2]
Conditions	mass density [kg/m3]	speed of sound [m/s]	viscosity [mPa·s]
288.15 K	868.317	1362.6	0.666
293.15 K	864.049	1343.4	0.619
298.15 K	859.767	1321	0.581
303.15 K	855.469	1300.3	0.552

Cc1ccc(C)cc1 [1,4-dimethylbenzene]
[1]
Conditions	mass density [kg/m3]	speed of sound [m/s]	viscosity [mPa·s]
288.15 K	865.253	1352	0.701
293.15 K	860.917	1331.1	0.65
298.15 K	856.617	1310	0.611
303.15 K	852.255	1289.7	0.576
